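48-hour exposure; five concentrations; linearly interpolated endpoints. GI50 marks 50% less growth. TGI denotes the concentration required for complete inhibition of growth.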
Tests used:
Assay in all cases: NCI-60 cell line screen, 48 h
UACC-62 melanoma = system: UACC-62 melanoma
NCI/ADR-RES ovarian = system: NCI/ADR-RES ovarian
SF-268 CNS = system: SF-268 CNS
CCRF-CEM leukemia = system: CCRF-CEM leukemia
HOP-62 NSCLC = system: HOP-62 NSCLC
K-562 leukemia = system: K-562 leukemia
PC-3 prostate = system: PC-3 prostate
HL-60(TB) leukemia = system: HL-60(TB) leukemia
A498 renal = system: A498 renal
SW-620 colon = system: SW-620 colon

Row | SMILES | GI50 (UACC-62 melanoma) | TGI (UACC-62 melanoma) | GI50 (NCI/ADR-RES ovarian) | TGI (NCI/ADR-RES ovarian) | GI50 (SF-268 CNS) | TGI (SF-268 CNS) | GI50 (CCRF-CEM leukemia) | TGI (CCRF-CEM leukemia) | GI50 (HOP-62 NSCLC) | TGI (HOP-62 NSCLC) | GI50 (K-562 leukemia) | TGI (K-562 leukemia) | GI50 (PC-3 prostate) | TGI (PC-3 prostate) | GI50 (HL-60(TB) leukemia) | TGI (HL-60(TB) leukemia) | GI50 (A498 renal) | TGI (A498 renal) | GI50 (SW-620 colon) | TGI (SW-620 colon)
1 | C[n+]1c(/C=C\c2ccc(Cl)cc2)ccc2ccccc21 | 17.7 µM | 52 µM | > 100 µM | > 100 µM | 29.8 µM | > 100 µM | 32.4 µM | > 100 µM | 29.2 µM | > 100 µM | 8.69 µM | > 100 µM | 13.3 µM | > 100 µM | 24.2 µM | > 100 µM | 4.02 µM | 91.3 µM | 4.1 µM | 63.4 µM
2 | Cn1cncc1[C@@](N)(c1ccc(Cl)cc1)c1ccc2c(c1)c(-c1cccc(Cl)c1)cc(=O)n2C | 0.42 µM | 12.5 µM | 2.54 µM | 12 µM | 3.01 µM | 14.7 µM | 2.54 µM | 18.8 µM | 5.51 µM | 18.4 µM | 0.669 µM | 6.16 µM | 1.47 µM | 7.99 µM | 1.29 µM | 4.62 µM | 0.887 µM | 17.2 µM | 1.82 µM | 12.7 µM
3 | COc1cc(-c2nc(Nc3nc4ccccc4[nH]3)nc(N)c2C#N)cc(OC)c1OC | 4.65 µM | > 59.7 µM | > 100 µM | > 100 µM | > 53.2 µM | > 100 µM | 6.17 µM | > 100 µM | 5.04 µM | 53.2 µM | 8.45 µM | > 100 µM | 1.65 µM | > 93.3 µM | 0.991 µM | > 100 µM | 0.424 µM | 22 µM | 1.85 µM | 26.1 µM
4 | COc1cccc(C2c3cc4c(cc3OC(C)(O)C2C)OCO4)c1O (centres undefined) | – | 31.1 µM | – | 6.4 µM | – | > 100 µM | – | 33.8 µM | – | 44.4 µM | – | 36.9 µM | – | > 100 µM | – | 28 µM | – | 18.8 µM | – | > 100 µM
5 | CC1=CC(=NC(=O)CBr)C=C/C1=N\S(=O)(=O)c1ccccc1 | 2.58 µM | 10.7 µM | 3.38 µM | 14 µM | 3.69 µM | 13.7 µM | 2.45 µM | 8.16 µM | 11.9 µM | 25.1 µM | 2.54 µM | 6.44 µM | 3.17 µM | 13.2 µM | 2.78 µM | 7.94 µM | 14.3 µM | 28.2 µM | 3.03 µM | 10.1 µM
6 | C/C=C(\C)C(=O)N[C@H]1CC[C@]2(C)C3CC[C@@]4(C)C(CC[C@@H]4C(C)N(C)C)C3CCC2[C@H]1OC(C)=O (some centres undefined) | 1.95 µM | 3.74 µM | 3.11 µM | 12 µM | 1.39 µM | 2.89 µM | 1.97 µM | 6.19 µM | 1.76 µM | 3.46 µM | 0.524 µM | 2.17 µM | 2.05 µM | 6.59 µM | 1.88 µM | 4.52 µM | 1.43 µM | 3.51 µM | 1.53 µM | 3.05 µM
7 | CCCN(CCC)C(=O)C1=Cc2ccc(-c3ccc(C(=O)N4CCCC4)cc3)cc2N=C(N)C1 | 9.17 µM | 26.4 µM | 19.4 µM | 62.2 µM | 15.5 µM | 46 µM | 10.6 µM | 74.4 µM | 12.6 µM | 65.4 µM | 4.45 µM | 26.9 µM | 8.56 µM | > 95.4 µM | 3.46 µM | 15.6 µM | 9.01 µM | 71.1 µM | 7.1 µM | 31.8 µM
8 | CC(C)=CCC[C@H](C)[C@@H]1CC[C@]2(C)C3CC[C@]4(OC4(C)C)C(CCCO)[C@]3(C)CC[C@@]12C (some centres undefined) | 13.6 µM | 30.4 µM | 23.5 µM | 59.2 µM | 17.8 µM | 36 µM | 25.2 µM | 65.9 µM | 20.8 µM | 44.4 µM | 25.3 µM | 73.3 µM | 18.2 µM | 41.1 µM | 20.7 µM | 45.3 µM | 20.1 µM | 37.2 µM | 28 µM | 64.8 µM
9 | O=C(Nc1ccccc1O)c1cccc(NC2=C(Cl)C(=O)N(Cc3ccccc3)C2=O)c1 | 2.33 µM | 6.79 µM | 3.35 µM | 11.8 µM | 11.3 µM | 27.5 µM | < 0.0179 µM | 3.85 µM | 7.98 µM | 20.6 µM | 2.15 µM | 9.06 µM | 13.7 µM | 26.6 µM | 1.5 µM | 8.5 µM | 14.2 µM | 27.7 µM | 2.12 µM | 5.06 µM
10 | CN(C)c1ccc(N2Cc3ccccc3OC3=C2C(=O)c2c(O)ccc(O)c2C3=O)cn1 | 0.211 µM | 0.638 µM | 0.284 µM | – | 0.37 µM | 1.59 µM | 0.102 µM | 0.815 µM | 1.56 µM | 3.86 µM | 0.177 µM | 1.58 µM | 0.221 µM | 0.867 µM | 0.147 µM | 0.538 µM | 2.15 µM | 5.8 µM | 0.178 µM | 0.586 µM
11 | Cc1nn(-c2nc3ccccc3s2)c(C)c1Oc1ccccc1O | 2.91 µM | 18.1 µM | 3.6 µM | 23.3 µM | 5.31 µM | 20.8 µM | 5.14 µM | 47.8 µM | 10.6 µM | 23.7 µM | 1.94 µM | 19.4 µM | 6.58 µM | > 100 µM | 4.02 µM | 18.1 µM | 11.4 µM | 23.6 µM | 4.79 µM | 17.6 µM
12 | C=C1C(=O)O[C@@H]2C[C@@]3(C)CCC[C@H](C)C3=C[C@H]12 | – | 19.8 µM | – | 27.9 µM | – | 26.7 µM | – | 9.94 µM | – | 24.7 µM | – | 31.2 µM | – | 24.2 µM | – | 5.52 µM | – | 24.9 µM | – | 12.3 µM
13 | C1=Cc2ccccc2Nc2ccccc21 | > 100 µM | > 100 µM | > 100 µM | > 100 µM | > 100 µM | > 100 µM | > 100 µM | > 100 µM | > 100 µM | > 100 µM | > 100 µM | > 100 µM | > 100 µM | > 100 µM | > 100 µM | > 100 µM | > 100 µM | > 100 µM | > 100 µM | > 100 µM
14 | CCOc1c(Br)cc(C2C(C(=O)OC)=CN(C)C=C2C(=O)OC)cc1OC | 50.2 µM | > 100 µM | 43.6 µM | > 100 µM | > 100 µM | > 100 µM | 40.1 µM | > 100 µM | > 100 µM | > 100 µM | 50.6 µM | > 100 µM | 30 µM | > 100 µM | 37.8 µM | > 100 µM | 16.5 µM | 98.2 µM | 38.6 µM | > 100 µM
15 | COc1ccc(CCN2C(=O)C=CC2=O)cc1OC | – | 31 µM | – | 74.5 µM | – | 54.4 µM | – | 2.93 µM | – | 53.8 µM | – | > 100 µM | – | 35.1 µM | – | 21.5 µM | – | 33.1 µM | – | 5.65 µM
16 | COc1ccc2nc(-c3cc(-c4cc(OC)c(OC)c(OC)c4)n[nH]3)[nH]c2c1 | 1.12 µM | 2.52 µM | 2.91 µM | > 100 µM | 2.74 µM | 9.38 µM | 1.29 µM | 4.12 µM | 2.02 µM | 5.77 µM | 2.01 µM | > 100 µM | 1.03 µM | 4.1 µM | 1.69 µM | 4.81 µM | 2.23 µM | 10.2 µM | 2.89 µM | 11.1 µM
17 | COc1cc(NS(C)(=O)=O)ccc1Nc1c2ccc(Cl)cc2nc2c(OC)cccc12 | 0.189 µM | 2.96 µM | 1.35 µM | > 49.4 µM | 0.131 µM | 11.5 µM | 0.0309 µM | > 91.7 µM | 0.0561 µM | 1.44 µM | 0.425 µM | > 100 µM | 0.782 µM | 15.2 µM | 0.0313 µM | 1.3 µM | 0.156 µM | 2.24 µM | 0.0799 µM | 2.17 µM

Source: PubChem BioAssay (NCI)
